# Reference: the Kinase Knowledgebase extract (Sharma et al. 2016)
# Target: PIK3CG (human) (UniProt P48736)
# Experiment: Inhibition of PIK3CG Kinase Activity
# PIK3CG (human), sequence (P48736 whole entry, looked up): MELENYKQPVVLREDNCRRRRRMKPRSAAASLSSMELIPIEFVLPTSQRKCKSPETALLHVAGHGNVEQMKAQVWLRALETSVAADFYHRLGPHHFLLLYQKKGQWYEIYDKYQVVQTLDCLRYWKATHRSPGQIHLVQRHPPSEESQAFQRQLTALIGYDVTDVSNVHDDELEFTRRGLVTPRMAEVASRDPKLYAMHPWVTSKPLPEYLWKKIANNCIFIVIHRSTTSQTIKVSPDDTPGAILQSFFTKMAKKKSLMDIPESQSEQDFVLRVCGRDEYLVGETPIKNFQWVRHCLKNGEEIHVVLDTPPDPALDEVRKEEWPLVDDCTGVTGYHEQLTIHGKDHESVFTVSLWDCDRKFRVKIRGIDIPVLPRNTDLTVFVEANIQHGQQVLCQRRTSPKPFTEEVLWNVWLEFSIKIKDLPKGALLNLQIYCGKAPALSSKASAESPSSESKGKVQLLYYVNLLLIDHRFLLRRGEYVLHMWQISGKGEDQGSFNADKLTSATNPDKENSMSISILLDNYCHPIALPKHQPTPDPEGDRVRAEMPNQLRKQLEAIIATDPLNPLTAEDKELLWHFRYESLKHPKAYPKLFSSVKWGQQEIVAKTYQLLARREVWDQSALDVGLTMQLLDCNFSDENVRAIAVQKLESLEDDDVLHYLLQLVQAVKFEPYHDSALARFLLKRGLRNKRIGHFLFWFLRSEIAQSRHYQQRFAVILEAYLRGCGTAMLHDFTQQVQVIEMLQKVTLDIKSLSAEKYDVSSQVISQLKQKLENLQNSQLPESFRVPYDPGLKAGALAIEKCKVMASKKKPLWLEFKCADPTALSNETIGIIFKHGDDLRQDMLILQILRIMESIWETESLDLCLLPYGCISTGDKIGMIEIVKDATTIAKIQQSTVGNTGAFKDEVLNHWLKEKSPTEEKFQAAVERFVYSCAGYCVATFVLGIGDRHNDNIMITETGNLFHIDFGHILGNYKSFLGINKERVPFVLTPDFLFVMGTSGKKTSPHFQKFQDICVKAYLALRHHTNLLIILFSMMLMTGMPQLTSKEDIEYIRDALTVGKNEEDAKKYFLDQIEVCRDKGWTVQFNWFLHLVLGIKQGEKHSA
row,Compound,IC50
1,CC(=O)Nc1nc2c(s1)-c1c(c(C3CC3)nn1-c1ccc(C(=O)NC3CCN(C)CC3)cc1Cl)CC2,< 600 nM
2,CC(=O)Nc1nc2c(s1)-c1c(c(C3CC3)nn1-c1ccc(C(=O)NC[C@@H]3CCN(CC4CCCC4)C3)c(Cl)c1)CC2,< 600 nM
3,CC(=O)Nc1nc2c(s1)-c1c(c(C3CC3)nn1-c1ccc(C(=O)N[C@H]3CC[C@@H](N(C)CC4CC4)CC3)c(C)c1)CC2,< 600 nM
4,CC(=O)Nc1nc2c(s1)-c1c(c(C3CC3)nn1-c1ccc(NC(=O)C3CCN(C4CCCC4)CC3)cc1Cl)CC2,< 600 nM
5,CC(=O)Nc1nc2c(s1)-c1c(c(C3CC3)nn1-c1ccc(C(=O)N(C)[C@H]3CC[C@@H](N4CCCCC4)CC3)c(Cl)c1)CC2,< 600 nM
6,CC(=O)Nc1nc2c(s1)-c1c(c(C3CC3)nn1-c1ccc(C(=O)N(C)C3CCC(N4CCCC4)CC3)c(F)c1)CC2 (centres undefined),< 600 nM
7,CC(=O)Nc1nc2c(s1)-c1c(c(C3CC3)nn1-c1ccc(C(=O)N(C)[C@@H]3CCN(C4CCCC4)C3)cc1F)CC2,< 600 nM
8,CC(=O)Nc1nc2c(s1)-c1c(c(C3CC3)nn1-c1ccc(N(C)C(=O)C3CCN(C4CCCC4)CC3)cc1Cl)CC2,< 600 nM
9,CC(=O)Nc1nc2c(s1)-c1c(c(C3CC3)nn1-c1ccc(C(=O)N[C@H]3CC[C@@H](N(C)CC4CCCC4)CC3)cc1Cl)CC2,< 600 nM
10,CC(=O)Nc1nc2c(s1)-c1c(c(C3CC3)nn1-c1ccc(C(=O)N(C)[C@H]3CC[C@@H](N(C)CC4CC4)CC3)cc1Cl)CC2,< 600 nM
11,CC(=O)Nc1nc2c(s1)-c1c(c(C3CC3)nn1-c1ccc(C(=O)N[C@H]3CC[C@@H](N(C)CC4CCCC4)CC3)c(C)c1)CC2,< 600 nM
12,CC(=O)Nc1nc2c(s1)-c1c(c(C3CC3)nn1C1CCN(C(=O)C3CCCCC3)CC1)CC2,< 600 nM
13,CC(=O)Nc1nc2c(s1)-c1c(c(C3CC3)nn1-c1ccc(C(=O)N[C@H]3CC[C@@H](N4CCCC4)CC3)c(Cl)c1)CC2,< 600 nM
14,CC(=O)Nc1nc2c(s1)-c1c(c(C3CC3)nn1-c1ccc(C(=O)NC[C@H]3CCN(CC4CCCC4)C3)c(Cl)c1)CC2,< 600 nM
15,CC(=O)Nc1nc2c(s1)-c1c(c(C3CC3)nn1-c1ccc(C(=O)N[C@H]3CC[C@@H](N4CCCCC4)CC3)c(Cl)c1)CC2,< 600 nM
16,CC(=O)Nc1nc2c(s1)-c1c(c(C3CC3)nn1C1CCC(C(=O)N[C@H]3CC[C@@H](N4CCCC4)CC3)CC1)CC2 (some centres undefined),< 600 nM
17,CC(=O)Nc1nc2c(s1)-c1c(c(C3CC3)nn1C1CCN(C(=O)C3CCN(CC4CCCCC4)CC3)CC1)CC2,< 600 nM

row,Compound,IC50
1,CC(=O)Nc1nc2c(s1)-c1c(c(C3(C)CC3)nn1-c1ccc(C(=O)N(C)[C@H]3CC[C@@H](N4CCCC4)CC3)cc1Cl)CC2,< 600 nM
2,CC(=O)Nc1nc2c(s1)-c1c(c(C3CC3)nn1C1CCN(C(=O)[C@H]3CC[C@@H](N4CCCC4)CC3)CC1)CC2,< 600 nM
3,CC(=O)Nc1nc2c(s1)-c1c(c(C3CC3)nn1-c1ccc(C(=O)N[C@H]3CC[C@@H](N(C)C)CC3)cc1Cl)CC2,< 600 nM
4,CC(=O)Nc1nc2c(s1)-c1c(c(C3CC3)nn1-c1ccc(C(=O)N[C@H]3CC[C@@H](N4CCOCC4)CC3)c(F)c1)CC2,< 600 nM
5,CC(=O)Nc1nc2c(s1)-c1c(c(C3CC3)nn1-c1ccc(NCC3CCN(C4CCCC4)CC3)cc1Cl)CC2,< 600 nM
6,CC(=O)Nc1nc2c(s1)-c1c(c(C3CC3)nn1-c1ccc(C(=O)N(C)[C@H]3CC[C@@H](N4CCCCC4)CC3)cc1C)CC2,< 600 nM
7,CC(=O)Nc1nc2c(s1)-c1c(c(C3CC3)nn1C1CCC(C(=O)NC3CCCCC3)CC1)CC2 (centres undefined),< 600 nM
8,CC(=O)Nc1nc2c(s1)-c1c(c(C3CC3)nn1-c1ccc(C(=O)NC3CCN(CC4CCCCC4)CC3)c(F)c1)CC2,< 600 nM
9,CC(=O)Nc1nc2c(s1)-c1c(c(C3CC3)nn1C1CCC(C(=O)N[C@H]3CC[C@H](N4CCCC4)CC3)CC1)CC2 (some centres undefined),< 600 nM
10,CC(=O)Nc1nc2c(s1)-c1c(c(C3CCC3)nn1-c1ccc(C(=O)N[C@H]3CC[C@@H](N4CCCCC4)CC3)cc1Cl)CC2,< 600 nM
11,CC(=O)Nc1nc2c(s1)-c1c(c(C3CC3)nn1-c1ccc(C(=O)N(C)[C@@H]3CCN(CC4CCCC4)C3)c(F)c1)CC2,< 600 nM
12,CNC(=O)Cc1ccc(-n2nc(C3CC3)c3c2-c2sc(NC(C)=O)nc2CC3)c(Cl)c1,< 600 nM
13,CC(=O)Nc1nc2c(s1)-c1c(c(C3CC3)nn1-c1ccccc1C(F)(F)F)CC2,< 600 nM
14,CCCN1CCC(NC(=O)c2ccc(-n3nc(C4CC4)c4c3-c3sc(NC(C)=O)nc3CC4)c(F)c2)CC1,< 600 nM
15,CC(=O)Nc1nc2c(s1)-c1c(c(C3CC3)nn1-c1ccc(C(=O)NC3CCN(CC4CCCC4)CC3)cc1C)CC2,< 600 nM
16,CCCN1CC[C@@H](NC(=O)c2ccc(-n3nc(C4CC4)c4c3-c3sc(NC(C)=O)nc3CC4)c(F)c2)C1,< 600 nM
17,CC(=O)Nc1nc2c(s1)-c1c(c(C3CC3)nn1C1CCC(C(=O)N(C)[C@H]3CC[C@H](N4CCCC4)CC3)CC1)CC2 (some centres undefined),< 600 nM

# Results, then the molecule that gave them:
row,IC50,Compound
1,< 600 nM,CC(=O)Nc1nc2c(s1)-c1c(c(C3CC3)nn1-c1ccccc1Br)CC2
2,< 600 nM,CC(=O)Nc1nc2c(s1)-c1c(c(C3CC3)nn1-c1ccc(C(=O)N[C@H]3CC[C@@H](C(N)=O)CC3)cc1Cl)CC2
3,< 600 nM,CC(=O)Nc1nc2c(s1)-c1c(c(C3CC3)nn1-c1ccc(C(=O)N(C)C3CCN(CC4CCCC4)CC3)c(Cl)c1)CC2
4,< 600 nM,CC(=O)Nc1nc2c(s1)-c1c(c(C3CC3)nn1-c1ccc(C(=O)NC3CCN(C4CCOCC4)CC3)cc1C)CC2
5,< 600 nM,CC(=O)Nc1nc2c(s1)-c1c(c(C3CC3)nn1-c1ccc(C(=O)N(C)[C@H]3CC[C@@H](N(C)CC4CC4)CC3)c(F)c1)CC2
6,< 600 nM,CC(=O)Nc1nc2c(s1)-c1c(c(C3CC3)nn1-c1ccccc1Cl)CC2
7,< 600 nM,CC(=O)Nc1nc2c(s1)-c1c(c(C3CC3)nn1-c1ccc(C(=O)N(C)[C@H]3CC[C@@H](N(C)CC4CC4)CC3)c(Cl)c1)CC2
8,< 600 nM,CC(=O)Nc1nc2c(s1)-c1c(c(C3CC3)nn1-c1ccc(C(=O)N(C)CC3CCN(CC4CCCC4)CC3)c(Cl)c1)CC2
9,< 600 nM,CCCN1CCC(NC(=O)c2ccc(-n3nc(C4CC4)c4c3-c3sc(NC(C)=O)nc3CC4)cc2C)CC1
10,< 600 nM,CCCN1CCC(NC(=O)c2ccc(-n3nc(C4CC4)c4c3-c3sc(NC(C)=O)nc3CC4)c(Cl)c2)CC1
11,< 600 nM,CC(=O)Nc1nc2c(s1)-c1c(c(C3CC3)nn1-c1ccc(C(=O)N(C)C3CCN(C)CC3)cc1Cl)CC2
12,< 600 nM,CC(=O)Nc1nc2c(s1)-c1c(c(C3CC3)nn1-c1ccc(C(=O)N3CC[C@@H](CN4CCCC4)C3)c(Cl)c1)CC2
13,< 600 nM,CC(=O)Nc1nc2c(s1)-c1c(c(C3CC3)nn1-c1ccc(C(=O)N(C)[C@@H]3CCN(C4CCCC4)C3)cc1Cl)CC2
14,< 600 nM,CCCN1CCC(NC(=O)c2ccc(-n3nc(C4CC4)c4c3-c3sc(NC(C)=O)nc3CC4)cc2F)CC1
15,< 600 nM,CC(=O)Nc1nc2c(s1)-c1c(c(C3CC3)nn1-c1ccc(C(=O)N(C)[C@@H]3CCN(CC4CCCC4)C3)c(Cl)c1)CC2
16,< 600 nM,CC(=O)Nc1nc2c(s1)-c1c(c(C3CC3)nn1-c1ccc(C(=O)NC3CCN(CC4CCCC4)CC3)cc1Cl)CC2
17,< 600 nM,CC(=O)Nc1nc2c(s1)-c1c(c(C3CC3)nn1-c1ccc(C(=O)N3CCC(N4CCCC4)CC3)cc1Cl)CC2
18,< 600 nM,CC(=O)Nc1nc2c(s1)-c1c(c(C3CC3)nn1-c1ccc(C(=O)N(C)[C@H]3CC[C@@H](N(C)CC4CCCC4)CC3)cc1F)CC2
19,< 600 nM,COc1cc(-n2nc(C3CC3)c3c2-c2sc(NC(C)=O)nc2CC3)ccc1C(=O)N[C@H]1CC[C@@H](N2CCCC2)CC1
20,< 600 nM,CC(=O)Nc1nc2c(s1)-c1c(c(C3CC3)nn1-c1ccc(C(=O)N(C)[C@H]3CC[C@@H](N4CCCCC4)CC3)c(C)c1)CC2

row,IC50,Compound
1,< 600 nM,CC(=O)Nc1nc2c(s1)-c1c(c(C3CC3)nn1-c1ccc(C(=O)N(C)C[C@@H]3CCN(C4CCCC4)C3)c(Cl)c1)CC2
2,< 600 nM,CC(=O)Nc1nc2c(s1)-c1c(c(C3CC3)nn1-c1ccc(C(=O)N(C)[C@@H]3CCN(C4CCCC4)C3)c(C)c1)CC2
3,< 600 nM,CC(=O)Nc1nc2c(s1)-c1c(c(C3CC3)nn1-c1ccc(C(=O)N3CC[C@H](CN4CCCC4)C3)cc1Cl)CC2
4,< 600 nM,CC(=O)Nc1nc2c(s1)-c1c(c(C3CC3)nn1-c1ccc(C(=O)NC[C@@H]3CCCN3C3CCCC3)c(Cl)c1)CC2
5,< 600 nM,CC(=O)Nc1nc2c(s1)-c1c(c(C3CCC3)nn1-c1ccc(C(=O)NC3CCN(C(C)C)CC3)cc1Cl)CC2
6,< 600 nM,CC(=O)Nc1nc2c(s1)-c1c(c(C3CC3)nn1-c1ccc(C(=O)N[C@@H]3CCN(CC4CCCC4)C3)c(F)c1)CC2
7,< 600 nM,CC(=O)Nc1nc2c(s1)-c1c(c(C3CC3)nn1-c1ccc(N)c(Cl)c1)CC2
8,< 600 nM,CC(=O)Nc1nc2c(s1)-c1c(c(C3CC3)nn1-c1ccc(C(=O)N(C)[C@H]3CC[C@@H](N(C)CC4CCCC4)CC3)cc1Cl)CC2
9,< 600 nM,CC(=O)Nc1nc2c(s1)-c1c(c(C3CC3)nn1-c1ccc(C(=O)N[C@H]3CC[C@@H](N4CCCCC4)CC3)cc1C)CC2
10,< 600 nM,CCN(C(=O)c1ccc(-n2nc(C3CC3)c3c2-c2sc(NC(C)=O)nc2CC3)cc1Cl)[C@H]1CC[C@@H](N2CCCC2)CC1
11,< 600 nM,CC(=O)Nc1nc2c(s1)-c1c(c(C3CC3)nn1-c1ccc(C(=O)N(C)[C@@H]3CCN(C4CCCC4)C3)cc1C)CC2
12,< 600 nM,CC(=O)Nc1nc2c(s1)-c1c(c(C3CCCC3)nn1-c1ccc(C(=O)NC3CCN(CC4CCCC4)CC3)cc1Cl)CC2
13,< 600 nM,CC(=O)Nc1nc2c(s1)-c1c(c(C3CC3)nn1-c1ccc(C(=O)N(C)C3CCN(C4CCCC4)CC3)c(Cl)c1)CC2
14,< 600 nM,CCN(C(=O)c1ccc(-n2nc(C3CC3)c3c2-c2sc(NC(C)=O)nc2CC3)cc1F)[C@H]1CC[C@@H](N2CCCC2)CC1
15,< 600 nM,CC(=O)Nc1nc2c(s1)-c1c(c(C3CC3)nn1-c1ccc(C(=O)N[C@@H]3CCN(C4CCCC4)C3)cc1Cl)CC2
16,< 600 nM,CNC(=O)c1ccc(-n2nc(C3CCCC3)c3c2-c2sc(NC(C)=O)nc2CC3)c(Cl)c1
17,< 600 nM,CCCCN1CCN(C(=O)N2CCC(n3nc(C4CC4)c4c3-c3sc(NC(C)=O)nc3CC4)CC2)CC1
18,< 600 nM,CC(=O)Nc1nc2c(s1)-c1c(c(C3CC3)nn1-c1ccc(C(=O)NC3CCN(CC4CCCCC4)CC3)cc1C)CC2
19,< 600 nM,CC(=O)Nc1nc2c(s1)-c1c(c(C3CC3)nn1-c1ccc(C(=O)N[C@H]3CC[C@@H](N(C)CC4CC4)CC3)cc1Cl)CC2
20,< 600 nM,CC(=O)Nc1nc2c(s1)-c1c(c(C3CC3)nn1-c1ccc(C(=O)N[C@H]3CC[C@@H](N4CCCCC4)CC3)cc1Cl)CC2
